Results as given in PMC11110727, “Exploiting thiol-functionalized benzosiloxaboroles for achieving diverse substitution patterns – synthesis, characterization and biological evaluation of promising antibacterial agents” (RSC Medicinal Chemistry, 2024).
Converted amounts (≈) assume the structure as drawn.

Legend:
[1] = tested on: S. epidermidis ATCC 12228; test: Antibacterial activity: MIC/MBC determination and disc-diffusion; format: cell-based; settings: Staphylococcus epidermidis, ATCC12228, S. epidermidis ATCC 12228; for MIC: read-out: MIC
Protocol: (§1) Direct antimicrobial activity was determined against the following standard strains: (1) Gram-positive cocci: methicillin-sensitive Staphylococcus aureus ATCC 6538P (MSSA), methicillin-resistant S. aureus subsp. aureus ATCC 43300 (MRSA), S. epidermidis ATCC 12228, Enterococcus faecium ATCC 6057, E. faecalis ATCC 29212, Bacillus subtilis ATCC 6633; (2) Gram-negative bacteria from Enterobacteriales order: Klebsiella pneumoniae ATCC 13883, Escherichia coli ATCC 25922, Enterobacter cloacae DSM 6234, Proteus mirabilis ATCC 12453, Serratia marcescens ATCC 13880; (3) Gram-negative non-fermentative rods: Acinetobacter baumannii ATCC 19606, Pseudomonas aeruginosa ATCC 27853, Stenotrophomonas maltophilia ATCC 12714, S. maltophilia ATCC 13637, Burkholderia cepacia ATCC 25416, Bordetella bronchiseptica ATCC 4617; (4) yeasts: Candida albicans ATCC 90028, C. krusei ATCC 6258, C. parapsilosis ATCC 22019, C. tropicalis (Castellani) Berkhout ATCC 750, C. tropicalis IBA 171, C. guilliermondii IBA 155, and Saccharomyces cerevisiae ATCC 9763. Moreover, 5 clinical strains of methicillin-resistant S. aureus were also included: NMI 664 K, NMI 1576 K, NMI 1712 K, NMI 1991 K, and NMI 2541 K. All strains were stored at −80 °C. Prior to testing, each bacterial strain was subcultured twice on tryptic soy agar TSA (bioMerieux) medium and yeast strains on Sabouraud dextrose agar (bioMerieux) for 24–48 h at 30 °C to ensure viability. The antimicrobial activity was evaluated as previously described[26] by the disc-diffusion method and the MIC determination assays according to the EUCAST (ref. [71] and [72]) and CLSI (ref. [53] and [73]) recommendations. Assessment of bactericidal (MBC) and fungicidal (MFC) activities was performed according to the CLSI recommendations.[54,74] The following reference agents were used: fluconazole (in the case of fungi), linezolid (for Gram-positive bacteria), and nitrofurantoin (for Gram-negative rods). The new benzosiloxaboroles were dissolved in DMSO (Sigma).

E. faecium ATCC 6057 = test: as above; format: cell-based; settings: Enterococcus faecium, ATCC6057; E. faecium ATCC 6057; read-out: MIC
Protocol: as §1

E. faecalis ATCC 29212 = test: as above; format: cell-based; settings: Enterococcus faecalis, ATCC29212; E. faecalis ATCC 29212; read-out: MIC
Protocol: as §1

[2] = tested on: S. aureus ATCC 43300 MRSA; test: as above; format: cell-based; settings: Staphylococcus aureus, S. aureus ATCC 43300 MRSA; for MBC: read-out: MBC (first MBC where Eagle effect); for MIC: read-out: MIC
Protocol: as §1

P. mirabilis ATCC 12453 = test: Antibacterial activity: MIC/MBC, MIC with PAβN, disc-diffusion; format: cell-based, Proteus mirabilis; settings: P. mirabilis ATCC 12453; for MIC: Proteus mirabilis, ATCC12453, read-out: MIC; for diameter of inhibition zone: (-) = zone not observed, paper discs 9 mm; for -fold reduction of MIC in the presence of PAβN: PAβN 20 μg mL^−1, MHB + 1 mM MgSO4
Protocol: as §1, with “The following reference agents were used: fluconazole (in the case of fungi), linezolid (for Gram-positive bacteria), and nitrofurantoin (for Gram-negative rods).” left out
(§2) Considering that the MDR efflux pumps often contribute to Gram-negative rod resistance, the MIC values of studied agents, with or without the pump inhibitor, PAβN (20 μg mL^−1) (Sigma), were determined.[75] The MIC was determined using Mueller–Hinton II broth medium (MHB) (Becton Dickinson) by the broth microdilution method, according to the CLSI guideliness.[53] To minimize the influence of PAβN on the destabilization of bacterial cell covers, the tests were conducted in the presence of 1 mM MgSO4 (Sigma).[76] At least a 4-fold reduction in the MIC value after the addition of PAβN was considered significant.[56,77]

E. coli ATCC 25922 = test: as above; format: cell-based, Escherichia coli; settings: E. coli ATCC 25922; for MIC / MBC: Escherichia coli, ATCC25922; for MIC: read-out: MIC; for diameter of inhibition zone: (-) = zone not observed, paper discs 9 mm
Protocol: as §1, with “The following reference agents were used: fluconazole (in the case of fungi), linezolid (for Gram-positive bacteria), and nitrofurantoin (for Gram-negative rods).” left out
as §2

C. krusei ATCC 6258 = test: Antifungal activity: MIC/MFC, disc-diffusion; format: cell-based; settings: for MIC: read-out: MIC
Protocol: as §1, with “The following reference agents were used: fluconazole (in the case of fungi), linezolid (for Gram-positive bacteria), and nitrofurantoin (for Gram-negative rods).” left out

A. baumannii ATCC 19606 = test: Antibacterial activity: MIC/MBC, MIC with PAβN, disc-diffusion; format: cell-based, Acinetobacter baumannii; settings: A. baumannii ATCC 19606; for MIC / MBC: Acinetobacter baumannii, ATCC19606; for MIC: read-out: MIC; for diameter of inhibition zone: (-) = zone not observed, paper discs 9 mm
Protocol: as §1, with “The following reference agents were used: fluconazole (in the case of fungi), linezolid (for Gram-positive bacteria), and nitrofurantoin (for Gram-negative rods).” left out
as §2

[3] = tested on: S. maltophilia ATCC 13637; test: as above; format: cell-based, Stenotrophomonas maltophilia; settings: S. maltophilia ATCC 13637; for MIC / MBC: Stenotrophomonas maltophilia, ATCC13637; for MIC: read-out: MIC; for diameter of inhibition zone: (-) = zone not observed, paper discs 9 mm
Protocol: as §1, with “The following reference agents were used: fluconazole (in the case of fungi), linezolid (for Gram-positive bacteria), and nitrofurantoin (for Gram-negative rods).” left out
as §2

K. pneumoniae ATCC 13883 = test: as above; format: cell-based, Klebsiella pneumoniae; settings: K. pneumoniae ATCC 13883; for MIC: Klebsiella pneumoniae, ATCC13883, read-out: MIC; for diameter of inhibition zone: (-) = zone not observed, paper discs 9 mm; for -fold reduction of MIC in the presence of PAβN: PAβN 20 μg mL^−1, MHB + 1 mM MgSO4
Protocol: as §1, with “The following reference agents were used: fluconazole (in the case of fungi), linezolid (for Gram-positive bacteria), and nitrofurantoin (for Gram-negative rods).” left out
as §2

[4] = PAβN 20 μg mL^−1, MHB + 1 mM MgSO4

## C[Si]1(C)OB(O)c2cc(F)c(SCCC(=O)Nc3ncccn3)c(F)c21 [Compound 9, 3-((5,7-Difluoro-3-hydroxy-1,1-dimethyl-1,3-dihydrobenzo[c][1,2,5]oxasilaborol-6-yl)thio)-N-(pyrimidin-2-yl)propanamide]
[1]
  MBC: 400 µg/mL (≈ 1010 µM)
  MIC: 50 µg/mL (≈ 126 µM)
E. faecium ATCC 6057
  MIC: 200 µg/mL (≈ 506 µM)
E. faecalis ATCC 29212
  MIC: 200 µg/mL (≈ 506 µM)
[2]
  MBC: 400 µg/mL (≈ 1010 µM)
  MIC: 50 µg/mL (≈ 126 µM)
P. mirabilis ATCC 12453
  MIC: > 400 µg/mL
E. coli ATCC 25922
  MIC: > 400 µg/mL
C. krusei ATCC 6258; Pichia kudriavzevii, ATCC6258
  MIC: > 400 µg/mL
A. baumannii ATCC 19606
  MIC: > 400 µg/mL
[3]
  MIC: > 400 µg/mL
K. pneumoniae ATCC 13883
  MIC: > 400 µg/mL

## C[Si]1(C)OB(O)c2cc(F)c(SCCC(=O)Nc3cnccn3)c(F)c21 [Compound 10, 3-((5,7-Difluoro-3-hydroxy-1,1-dimethyl-1,3-dihydrobenzo[c][1,2,5]oxasilaborol-6-yl)thio)-N-(pyrazin-2-yl)propanamide]
[1]
  MBC: 400 µg/mL (≈ 1010 µM)
  MIC: 50 µg/mL (≈ 126 µM)
E. faecium ATCC 6057
  MIC: 100 µg/mL (≈ 253 µM)
E. faecalis ATCC 29212
  MIC: 200 µg/mL (≈ 506 µM)
[2]
  MBC: 400 µg/mL (≈ 1010 µM)
  MIC: 50 µg/mL (≈ 126 µM)
P. mirabilis ATCC 12453
  MIC: > 400 µg/mL
E. coli ATCC 25922
  MIC: > 400 µg/mL
C. krusei ATCC 6258; Pichia kudriavzevii, ATCC6258
  MIC: > 400 µg/mL
A. baumannii ATCC 19606
  MIC: > 400 µg/mL
[3]
  MIC: > 400 µg/mL
K. pneumoniae ATCC 13883
  MIC: > 400 µg/mL

## Cc1cc(NC(=O)CCSc2c(F)cc3c(c2F)[Si](C)(C)OB3O)no1 [Compound 11, 3-((5,7-Difluoro-3-hydroxy-1,1-dimethyl-1,3-dihydrobenzo[c][1,2,5]oxasilaborol-6-yl)thio)-N-(5-methylisoxazol-3-yl)propanamide]
[1]
  MBC: 400 µg/mL (≈ 1000 µM)
  MIC: 25 µg/mL (≈ 62.8 µM)
E. faecium ATCC 6057
  MIC: 200 µg/mL (≈ 502 µM)
E. faecalis ATCC 29212
  MIC: 200 µg/mL (≈ 502 µM)
[2]
  MBC: 400 µg/mL (≈ 1000 µM)
  MIC: 50 µg/mL (≈ 126 µM)
P. mirabilis ATCC 12453
  MIC: > 400 µg/mL
E. coli ATCC 25922
  MIC: > 400 µg/mL
C. krusei ATCC 6258; Pichia kudriavzevii, ATCC6258
  MIC: > 400 µg/mL
A. baumannii ATCC 19606
  MIC: > 400 µg/mL
[3]
  MIC: > 400 µg/mL
K. pneumoniae ATCC 13883
  MIC: > 400 µg/mL

## C[Si]1(C)OB(O)c2cc(F)c(SC3CC(=O)NC3=O)c(F)c21 (stereo not shown) [Compound 12, 3-((5,7-Difluoro-3-hydroxy-1,1-dimethyl-1,3-dihydrobenzo[c][1,2,5]oxasilaborol-6-yl)thio)pyrrolidine-2,5-dione]
[1]
  MBC: 400 µg/mL (≈ 1170 µM)
  MIC: 6.25 µg/mL (≈ 18.2 µM)
E. faecium ATCC 6057
  MIC: 12.5 µg/mL (≈ 36.4 µM)
E. faecalis ATCC 29212
  MIC: 25 µg/mL (≈ 72.8 µM)
[2]
  MBC: 200 µg/mL (≈ 583 µM)
  MIC: 12.5 µg/mL (≈ 36.4 µM)
P. mirabilis ATCC 12453
  diameter of inhibition zone: 14 mm
  -fold reduction of MIC in the presence of PAβN: 4 -fold
  MIC: > 400 µg/mL
E. coli ATCC 25922
  diameter of inhibition zone: 17 mm
  MBC: 200 µg/mL (≈ 583 µM)
  MIC: 50 µg/mL (≈ 146 µM)
C. krusei ATCC 6258; Pichia kudriavzevii, ATCC6258
  MIC: > 400 µg/mL
A. baumannii ATCC 19606
  diameter of inhibition zone: 18 mm
  MBC: 200 µg/mL (≈ 583 µM)
  MIC: 100 µg/mL (≈ 291 µM)
A. baumannii ATCC 19606; [4]
  -fold reduction of MIC in the presence of PAβN: 2 -fold
[3]
  diameter of inhibition zone: 13 mm
  MBC: 100 µg/mL (≈ 291 µM)
  MIC: 50 µg/mL (≈ 146 µM)
K. pneumoniae ATCC 13883
  diameter of inhibition zone: 17 mm
  -fold reduction of MIC in the presence of PAβN: 4 -fold
  MIC: 400 µg/mL (≈ 1170 µM)

## C[Si]1(C)OB(O)c2ccc(SC3CC(=O)NC3=O)c(F)c21 (stereo not shown) [Compound 13, 3-((7-Fluoro-3-hydroxy-1,1-dimethyl-1,3-dihydrobenzo[c][1,2,5]oxasilaborol-6-yl)thio)pyrrolidine-2,5-dione]
[1]
  MIC: 25 µg/mL (≈ 76.9 µM)
E. faecium ATCC 6057
  MIC: 12.5 µg/mL (≈ 38.4 µM)
E. faecalis ATCC 29212
  MIC: 25 µg/mL (≈ 76.9 µM)
[2]
  MIC: 25 µg/mL (≈ 76.9 µM)
P. mirabilis ATCC 12453
  diameter of inhibition zone: 18 mm
  -fold reduction of MIC in the presence of PAβN: 4 -fold
  MIC: 400 µg/mL (≈ 1230 µM)
E. coli ATCC 25922
  diameter of inhibition zone: 19 mm
  MBC: 50 µg/mL (≈ 154 µM)
  MIC: 25 µg/mL (≈ 76.9 µM)
C. krusei ATCC 6258; Pichia kudriavzevii, ATCC6258
  MIC: > 400 µg/mL
A. baumannii ATCC 19606
  diameter of inhibition zone: 20 mm
  MBC: 100 µg/mL (≈ 308 µM)
  MIC: 50 µg/mL (≈ 154 µM)
[3]
  diameter of inhibition zone: 19 mm
  MBC: 50 µg/mL (≈ 154 µM)
  MIC: 25 µg/mL (≈ 76.9 µM)
K. pneumoniae ATCC 13883
  diameter of inhibition zone: 19 mm
  -fold reduction of MIC in the presence of PAβN: 4 -fold
  MIC: 200 µg/mL (≈ 615 µM)

## C[Si]1(C)OB(O)c2cc(F)c(SC3CC(=O)N(c4ccc(F)cc4)C3=O)c(F)c21 (stereo not shown) [Compound 14, 3-((5,7-Difluoro-3-hydroxy-1,1-dimethyl-1,3-dihydrobenzo[c][1,2,5]oxasilaborol-6-yl)thio)-1-(4-fluorophenyl)pyrrolidine-2,5-dione]
[1]
  MIC: 50 µg/mL (≈ 114 µM)
E. faecium ATCC 6057
  MIC: 50 µg/mL (≈ 114 µM)
E. faecalis ATCC 29212
  MIC: 25 µg/mL (≈ 57.2 µM)
[2]
  MIC: 50 µg/mL (≈ 114 µM)
P. mirabilis ATCC 12453
  MIC: > 200 µg/mL
E. coli ATCC 25922; [4]
  -fold reduction of MIC in the presence of PAβN: 2 -fold
E. coli ATCC 25922
  MIC: > 200 µg/mL
C. krusei ATCC 6258; C. krusei ATCC 6258, (-) = zone not observed, paper discs 9 mm
  diameter of inhibition zone: 30 mm
C. krusei ATCC 6258; Pichia kudriavzevii, ATCC6258, C. krusei ATCC 6258
  MFC: 100 µg/mL (≈ 229 µM)
C. krusei ATCC 6258; Pichia kudriavzevii, ATCC6258
  MIC: 12.5 µg/mL (≈ 28.6 µM)
A. baumannii ATCC 19606
  MIC: > 200 µg/mL
[3]
  diameter of inhibition zone: 11 mm
  MBC: 100 µg/mL (≈ 229 µM)
  MIC: 25 µg/mL (≈ 57.2 µM)
K. pneumoniae ATCC 13883
  MIC: > 200 µg/mL
